Reference: patent US20240158418A1 (C4 Therapeutics, Inc., priority 2021, published 2024)

target: T1, EGFR L858R-T790M (Homo sapiens, UniProt P00533, L858R/T790M); test: EGFR degradation, Total EGFR (L858R-specific) HTRF, NCI-H1975; type: cell-based; settings: Table 9A; NCI-H1975 cells, 6 hours, Total EGFR HTRF; read-out: H1975 EGFR DC50
T1 construct: NCI-H1975 (harboring EGFR heterozygous L858R-T790M mutations); host or cells: NCI-H1975
In short: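 FRET signal from HTRF kits measured phospho-EGFR at pY1068 or total EGFR after 6 h treatment at 37 °C. Compounds ran as 11-point half-log dilutions from 10 μM in duplicate, in cells in phenol red-free RPMI with 10% FBS. Concentrations giving 50% inhibition or degradation were reported as IC50 or DC50.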

T1 sequence (P00533 25-1210 T790M/L858R): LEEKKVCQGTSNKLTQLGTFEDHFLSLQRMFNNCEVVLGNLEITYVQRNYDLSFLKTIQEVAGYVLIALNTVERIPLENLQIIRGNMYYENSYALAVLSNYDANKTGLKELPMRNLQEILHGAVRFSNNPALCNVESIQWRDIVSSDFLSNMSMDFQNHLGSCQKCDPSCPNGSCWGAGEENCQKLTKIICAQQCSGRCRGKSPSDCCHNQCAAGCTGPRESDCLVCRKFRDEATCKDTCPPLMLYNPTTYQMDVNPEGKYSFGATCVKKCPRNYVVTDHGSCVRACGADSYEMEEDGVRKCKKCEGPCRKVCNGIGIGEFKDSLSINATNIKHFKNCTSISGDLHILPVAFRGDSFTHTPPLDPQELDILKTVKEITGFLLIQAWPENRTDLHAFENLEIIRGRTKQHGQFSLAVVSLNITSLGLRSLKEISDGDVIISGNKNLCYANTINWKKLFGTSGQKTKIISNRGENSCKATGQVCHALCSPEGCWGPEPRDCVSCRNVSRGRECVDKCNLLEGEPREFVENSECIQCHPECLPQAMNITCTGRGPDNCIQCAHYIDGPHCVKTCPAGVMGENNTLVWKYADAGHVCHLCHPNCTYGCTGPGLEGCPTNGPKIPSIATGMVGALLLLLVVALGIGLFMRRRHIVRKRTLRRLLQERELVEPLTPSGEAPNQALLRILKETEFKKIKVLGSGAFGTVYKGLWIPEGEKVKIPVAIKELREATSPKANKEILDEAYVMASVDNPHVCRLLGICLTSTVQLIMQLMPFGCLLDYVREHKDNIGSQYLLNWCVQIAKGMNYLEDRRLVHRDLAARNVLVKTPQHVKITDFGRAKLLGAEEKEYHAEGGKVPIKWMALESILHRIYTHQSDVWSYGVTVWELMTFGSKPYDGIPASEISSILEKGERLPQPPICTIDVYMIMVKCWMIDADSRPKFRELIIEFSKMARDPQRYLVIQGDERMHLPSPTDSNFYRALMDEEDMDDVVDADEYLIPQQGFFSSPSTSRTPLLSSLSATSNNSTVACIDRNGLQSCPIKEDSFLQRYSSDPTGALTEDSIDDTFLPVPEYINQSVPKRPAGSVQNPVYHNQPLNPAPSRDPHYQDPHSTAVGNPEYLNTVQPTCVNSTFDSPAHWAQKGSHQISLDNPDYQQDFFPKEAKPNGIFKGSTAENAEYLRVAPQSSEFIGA

Row | DC50 | Structure (SMILES)
1 | < 0.05 µM | O=C1CCC(Nc2ccc(C3CCN(C(=O)CN4CCC(c5ccc(-c6cc(F)c7c(c6)C(=O)N(C(C(=O)Nc6nccs6)c6ncn8c6CCC8)C7)cc5)CC4)CC3)cc2)C(=O)N1 (centres unmarked) [Compound 26, 2-(6,7-dihydro-5H-pyrrolo[1,2-c]imidazol-1-yl)-2-[6-[4-[1-[2-[4-[4-[(2,6-dioxo-3-piperidyl)amino]phenyl]-1-piperidyl]-2-oxo-ethyl]-4-piperidyl]phenyl]-4-fluoro-1-oxo-isoindolin-2-yl]-N-thiazol-2-yl-acetamide]

same assay, conditions: Table 9B; NCI-H1975 cells, 6 hours, Total EGFR HTRF; read-out: H1975 EGFR DC50

Row | Structure (SMILES) | DC50
2 | Cn1nc(N2CCC(=O)NC2=O)c2ccc([C@@H]3CCN(C(=O)CN4CCC5(CC4)CN(c4ccc(-c6cc(F)c7c(c6)C(=O)N(C(C(=O)Nc6nccs6)c6ncn8c6CCC8)C7)cc4)C5)CC3(F)F)cc21 (stereo partly drawn) [Compound 141, 2-(6,7-dihydro-5H-pyrrolo[1,2-c]imidazol-1-yl)-2-[6-[4-[7-[2-[(4S)-4-[3-(2,4-dioxohexahydropyrimidin-1-yl)-1-methyl-indazol-6-yl]-3,3-difluoro-1-piperidyl]-2-oxo-ethyl]-2,7-diazaspiro[3.5]nonan-2-yl]phenyl]-4-fluoro-1-oxo-isoindolin-2-yl]-N-thiazol-2-yl-acetamide] | 0.05 to 0.15 µM
3 | O=C1CCC(Nc2ccc(N3CCC(O)(CC(=O)N4CC5(CCN(c6ccc(-c7cc(F)c8c(c7)C(=O)N(C(C(=O)Nc7nccs7)c7ncn9c7CCC9)C8)cc6)CC5)C4)CC3)c(Cl)c2)C(=O)N1 (single isomer, unassigned; isomer 1) [Compound 128, 2-[6-[4-[2-[2-[1-[2-chloro-4-[[2,6-dioxo-3-piperidyl]amino]phenyl]-4-hydroxy-4-piperidyl]acetyl]-2,7-diazaspiro[3.5]nonan-7-yl]phenyl]-4-fluoro-1-oxo-isoindolin-2-yl]-2-(6,7-dihydro-5H-pyrrolo[1,2-c]imidazol-1-yl)-N-thiazol-2-yl-acetamide, isomer 1] | < 0.05 µM
4 | O=C1CC[C@H](Nc2ccc(N3CCC(O)(C(=O)N4CC5(C4)CN(c4ccc(-c6cc(F)c7c(c6)C(=O)N(C(C(=O)Nc6nccs6)c6ncn8c6CCC8)C7)cc4)C5)CC3)c(F)c2)C(=O)N1 (single isomer, unassigned; isomer 1) [Compound 146, 2-(6,7-dihydro-5H-pyrrolo[1,2-c]imidazol-1-yl)-2-[6-[4-[2-[1-[4-[[2,6-dioxo-3-piperidyl]amino]-2-fluoro-phenyl]-4-hydroxy-piperidine-4-carbonyl]-2,6-diazaspiro[3.3]heptan-6-yl]phenyl]-4-fluoro-1-oxo-isoindolin-2-yl]-N-thiazol-2-yl-acetamide, isomer 1] | < 0.05 µM
5 | O=C1CC[C@H](Nc2ccc(N3CCC(O)(CC(=O)N4CC5(C4)CN(c4ccc(-c6cc(F)c7cn(C(C(=O)Nc8nccs8)c8ncn9c8CCC9)nc7c6)cn4)C5)CC3)c(F)c2)C(=O)N1 (stereo partly drawn) [Compound 75, 2-(6,7-dihydro-5H-pyrrolo[1,2-c]imidazol-1-yl)-2-[6-[6-[2-[2-[1-[4-[[(3S)-2,6-dioxo-3-piperidyl]amino]-2-fluoro-phenyl]-4-hydroxy-4-piperidyl]acetyl]-2,6-diazaspiro[3.3]heptan-6-yl]-3-pyridyl]-4-fluoro-indazol-2-yl]-N-thiazol-2-yl-acetamide] | < 0.05 µM
6 | O=C1CCC(Nc2cc(F)c(N3CCC(O)(CC(=O)N4CC5(C4)CN(c4ccc(-c6cc(F)c7c(c6)C(=O)N(C(C(=O)Nc6nccs6)c6ncn8c6CCC8)C7)cc4)C5)CC3)c(Cl)c2)C(=O)N1 (single isomer, unassigned; isomer 1) [Compound 145, 2-[6-[4-[2-[2-[1-[2-chloro-4-[[2,6-dioxo-3-piperidyl]amino]-6-fluoro-phenyl]-4-hydroxy-4-piperidyl]acetyl]-2,6-diazaspiro[3.3]heptan-6-yl]phenyl]-4-fluoro-1-oxo-isoindolin-2-yl]-2-(6,7-dihydro-5H-pyrrolo[1,2-c]imidazol-1-yl)-N-thiazol-2-yl-acetamide, isomer 1] | 0.05 to 0.15 µM
7 | O=C1CCC(Nc2ccc(N3CCC(O)(CC(=O)N4CC5(C4)CN(c4ccc(-c6ccc7cn(C(C(=O)Nc8nccs8)c8ncn9c8CCC9)nc7c6F)cn4)C5)CC3)c(F)c2)C(=O)N1 (centres unmarked) [Compound 74, 2-(6,7-dihydro-5H-pyrrolo[1,2-c]imidazol-1-yl)-2-[6-[6-[2-[2-[1-[4-[(2,6-dioxo-3-piperidyl)amino]-2-fluoro-phenyl]-4-hydroxy-4-piperidyl]acetyl]-2,6-diazaspiro[3.3]heptan-6-yl]-3-pyridyl]-7-fluoro-indazol-2-yl]-N-thiazol-2-yl-acetamide] | < 0.05 µM

Second part, the compound after the results:

Row | DC50 | Structure (SMILES)
8 | < 0.05 µM | O=C1CCC(Nc2ccc(N3CCCC(O)(CC(=O)N4CC5(C4)CN(c4ccc(-c6cc(F)c7c(c6)C(=O)N(C(C(=O)Nc6nccs6)c6ncn8c6CCC8)C7)cc4)C5)CC3)c(F)c2)C(=O)N1 (single isomer, unassigned; isomer a2) [Compound 165, 2-(6,7-dihydro-5H-pyrrolo[1,2-c]imidazol-1-yl)-2-[6-[4-[2-[2-[1-[4-[[2,6-dioxo-3-piperidyl]amino]-2-fluoro-phenyl]-4-hydroxy-azepan-4-yl]acetyl]-2,6-diazaspiro[3.3]heptan-6-yl]phenyl]-4-fluoro-1-oxo-isoindolin-2-yl]-N-thiazol-2-yl-acetamide, isomer A2]
9 | < 0.05 µM | Cn1nc(N2CCC(=O)NC2=O)c2ccc([C@H]3CCN(C(=O)CN4CCC5(CC4)CN(c4ccc(-c6cc(F)c7c(c6)C(=O)N(C(C(=O)Nc6nccs6)c6ncn8c6CCC8)C7)cc4)C5)CC3(F)F)cc21 (stereo partly drawn) [Compound 140, 2-(6,7-dihydro-5H-pyrrolo[1,2-c]imidazol-1-yl)-2-[6-[4-[7-[2-[(4R)-4-[3-(2,4-dioxohexahydropyrimidin-1-yl)-1-methyl-indazol-6-yl]-3,3-difluoro-1-piperidyl]-2-oxo-ethyl]-2,7-diazaspiro[3.5]nonan-2-yl]phenyl]-4-fluoro-1-oxo-isoindolin-2-yl]-N-thiazol-2-yl-acetamide]
10 | < 0.05 µM | COc1cc(N2CCC(O)(CC(=O)N3CC4(C3)CN(c3ccc(-c5cc(F)c6c(c5)C(=O)N(C(C(=O)Nc5nccs5)c5ncn7c5CCC7)C6)cc3)C4)CC2)c(F)cc1NC1CCC(=O)NC1=O (single isomer, unassigned) [Compound 173, 2-(6,7-dihydro-5H-pyrrolo[1,2-c]imidazol-1-yl)-2-[6-[4-[2-[2-[1-[4-[[2,6-dioxo-3-piperidyl]amino]-2-fluoro-5-methoxy-phenyl]-4-hydroxy-4-piperidyl]acetyl]-2,6-diazaspiro[3.3]heptan-6-yl]phenyl]-4-fluoro-1-oxo-isoindolin-2-yl]-N-thiazol-2-yl-acetamide]
11 | < 0.05 µM | O=C1CCC(Nc2ccc(N3CCC(O)(CC(=O)N4CC5(CCN(c6ccc(-c7cc(F)c8c(c7)C(=O)N(C(C(=O)Nc7nccs7)c7ncn9c7CCC9)C8)cc6)CC5)C4)CC3)c(F)c2)C(=O)N1 (centres unmarked) [Compound 107, 2-(6,7-dihydro-5H-pyrrolo[1,2-c]imidazol-1-yl)-2-(6-(4-(2-(2-(1-(4-((2,6-dioxopiperidin-3-yl)amino)-2-fluorophenyl)-4-hydroxypiperidin-4-yl)acetyl)-2,7-diazaspiro[3.5]nonan-7-yl)phenyl)-4-fluoro-1-oxoisoindolin-2-yl)-N-(thiazol-2-yl)acetamide]
